Where “and” joins values, the source holds several entries; their conditions need not be identical. Equal entries are not always repeated.
Legend:
[1] = PAMPA gut passive permeability; type: in vitro ADME; conditions: for -log Pe: PAMPA gut, 4 h
Description: (§1) Parallel Artificial Membrane Permeability Assay was performed to analyze both blood–brain barrier (BBB) and gut passive permeability. All materials for PAMPA were purchased from Pion, Inc (Billerica, MA, USA). Both the gut and BBB assays were performed according to the manufacturer’s instructions. Briefly, test compounds and standards were prepared at 10 mM concentrations in DMSO. For the gut assay, Prisma HT buffer was adjusted to pHs 5, 6.2, and 7.4 by adding 0.5 M NaOH. In the deepwell plate provided by Pion, 1 mL of each pH-adjusted buffer was added to separate wells. For each pH, 5 µL of the sample was added to the 1 mL of buffer then mixed thoroughly with a pipette, diluting the sample to a final concentration of 50 µM. Next, 200 µl of the diluted sample was added to the donor (bottom) plate from the Pion sandwich assay, 5 µL of GIT lipid matrix was added to the membrane on the bottom of the acceptor plate, and 200 µL of acceptor sink buffer was added in each well of the acceptor plate. The sandwich was assembled, and the plate incubated at room temperature for 4 h undisturbed. In BBB assays, compounds (10 mM) were diluted to final concentrations of 50 µM in Prisma HT Buffer (pH = 7.4). The PAMPA sandwich was created with the donor (bottom), BBB artificial membrane, and brain sink buffer as the acceptor (top). The assay was performed for 1 h at room temperature with shaking (60 µm) using the manufacturer-supplied GIT Box. After incubation, the UV profiles of the donor and acceptor plates were read on the SpectraMax plate reader connected to the PAMPA software. PAMPA software calculated the –log Pe values for each compound and standard using the UV profiles of the donor and acceptor plates.

[2] = system: nitric oxide production in LPS-stimulated BV-2 murine microglia; test: Nitric oxide quantification (Griess assay) in LPS-stimulated BV-2; type: cell-based; conditions: for Mean Diff., LPS (1 μg/mL) vs. compound, NOS production: Tukey's multiple comparisons test; for nitric oxide concentration: 10 μM compound + LPS 1 μg/mL
Description: (§2) As previously published, BV-2 cells were seeded at a density of 100,000 cells/mL in 24-well plates. […] Media were collected, aliquoted for nitric oxide and cytokine analysis.
Nitric oxide was detected in BV-2 culture media following the stimulation of LPS for 24 h from the previously described experiment by way of the Griess Assay (Promega, Madison WI), according to the manufacturer’s protocol.

[3] = system: TNF-α release from LPS-stimulated BV-2 murine microglia; test: TNF-α ELISA in LPS-stimulated BV-2 media; type: cell-based; conditions: for Mean Diff., LPS (1 μg/mL) vs. compound, TNF-α: Tukey's multiple comparisons test; for effect on TNF-α production (in words): 20 μM and 10 μM, compared to LPS-induced treatment; for reduction of TNF-α compared to LPS: LPS 1 μg/mL
Description: as §2
(§3) IL-6 and TNF-α were measured from BV-2 media using Enzyme Linked Immunosorbent Assay (ELISA) provided by Biolegend (San Diego, CA, USA).

[4] = system: IL-6 release from LPS-stimulated BV-2 murine microglia; test: IL-6 ELISA in LPS-stimulated BV-2 media; type: cell-based; conditions: for Mean Diff., LPS (1 μg/mL) vs. compound, IL-6: Tukey's multiple comparisons test; for IL-6 concentration: 10 μM compound + LPS 1 μg/mL; for reduction of IL-6 production compared to LPS: LPS 1 μg/mL
Description: as §2, §3

[5] = system: nitric oxide production in LPS-stimulated BV-2 murine microglia; test: Nitric oxide quantification (Griess assay) in LPS-stimulated BV-2; type: cell-based; conditions: 1 h pre-treatment, LPS 1 μg/mL 23 h
[6] = PAMPA BBB passive permeability; type: in vitro ADME; conditions: for PAMPA BBB permeability (in words): pH 7.4; for -log Pe: PAMPA BBB, pH 7.4, 50 µM, 1 h
Description: as §1

Compound	PAMPA gut permeability (in words) ([1]; pH 5.0, 6.2 and 7.4)	PAMPA BBB permeability (in words) [6]	-log Pe [6]	Mean Diff., LPS (1 μg/mL) vs. compound, NOS production ([2]; 10 μM)	Mean Diff., LPS (1 μg/mL) vs. compound, NOS production ([2]; 20 μM)	Mean Diff., LPS (1 μg/mL) vs. compound, TNF-α ([3]; 10 μM)	Mean Diff., LPS (1 μg/mL) vs. compound, TNF-α ([3]; 20 μM)	Mean Diff., LPS (1 μg/mL) vs. compound, IL-6 ([4]; 10 μM)	Mean Diff., LPS (1 μg/mL) vs. compound, IL-6 ([4]; 20 μM)	reduction of nitric oxide compared to LPS alone ([5]; 20 μM)	nitric oxide concentration [2]	TNF-α concentration ([3]; 10 μM compound + LPS 1 μg/mL)	reduction of TNF-α compared to LPS ([3]; 10 μM)	IL-6 concentration [4]	reduction of IL-6 production compared to LPS ([4]; 10 μM)	reduction of nitric oxide compared to LPS alone ([5]; 10 μM)	other results
Cc1cc(=O)n(-c2ccccc2)n1C [Antipyrine, reference compound]	–	–	–	–	–	–	–	–	–	–	–	–	–	–	–	–	PAMPA gut permeability (in words) ([1]; pH 5): medium
O=c1c(-c2ccc(O)cc2)coc2cc(O)ccc12 [DAI, daidzein]	most permeable at pHs 5 and 6.2	–	–	4.129	9.223	57.91	70.55	17.26	20.68	24%	–	–	–	–	–	–	effect on TNF-α production (in words) [3]: similar, albeit less potent, protective abilities
OC[C@H](Cc1cccc(O)c1)[C@H](CO)Cc1cccc(O)c1 [ED, enterodiol]	lowest permeability of all test compounds	low permeability	–	4.354	–	2.638	–	-24.9	–	–	46.65 µM	515.8 pg/mL	0.5%	690.6 pg/mL	approximately 3.74%	~8.54%	–
O=C1OC[C@H](Cc2cccc(O)c2)[C@H]1Cc1cccc(O)c1 [EL, enterolactone]	–	high permeability	3.97 ± 0.14	15.34	–	152.8	–	175.8	–	–	35.67 µM	365.6 pg/mL	29.47%	489.9 pg/mL	~26.41%	~30.07%	-log Pe ([1]; pH 5, 50 µM): 4.27 ± 0.05; -log Pe ([1]; pH 6.2, 50 µM): 4.37 ± 0.02
lipopolysaccharide [LPS, reference compound]	–	–	–	–	–	–	–	–	–	–	–	–	–	–	–	–	nitric oxide species concentration ([2]; LPS 1 μg/mL alone): 41.5 ± 5.6 µM and 51.01 µM; TNF-α concentration ([3]; LPS 1 μg/mL alone): 687.7 ± 8.0 pg/mL and 518.4 pg/mL

Second part, led by results:

PAMPA gut permeability (in words) ([1]; pH 5.0, 6.2 and 7.4)	PAMPA BBB permeability (in words) [6]	-log Pe [6]	Compound	Mean Diff., LPS (1 μg/mL) vs. compound, NOS production ([2]; 10 μM)	Mean Diff., LPS (1 μg/mL) vs. compound, NOS production ([2]; 20 μM)	Mean Diff., LPS (1 μg/mL) vs. compound, TNF-α ([3]; 10 μM)	Mean Diff., LPS (1 μg/mL) vs. compound, TNF-α ([3]; 20 μM)	Mean Diff., LPS (1 μg/mL) vs. compound, IL-6 ([4]; 10 μM)	Mean Diff., LPS (1 μg/mL) vs. compound, IL-6 ([4]; 20 μM)	reduction of nitric oxide compared to LPS alone ([5]; 20 μM)	nitric oxide concentration [2]	TNF-α concentration ([3]; 10 μM compound + LPS 1 μg/mL)	reduction of TNF-α compared to LPS ([3]; 10 μM)	IL-6 concentration [4]	reduction of IL-6 production compared to LPS ([4]; 10 μM)	reduction of nitric oxide compared to LPS alone ([5]; 10 μM)	other results
–	high permeability	3.52 ± 0.20	Oc1ccc([C@H]2COc3cc(O)ccc3C2)cc1 [EQ, equol]	6.216	8.47	57.03	72.78	10.39	19.48	22%	–	–	–	–	–	–	-log Pe ([1]; pH 5, 50 µM): 4.35 ± 0.11; -log Pe ([1]; pH 6.2, 50 µM): 4.20 ± 0.02; effect on TNF-α production (in words) [3]: similar, albeit less potent, protective abilities
–	Intermediate BBB permeability	4.26 ± 0.16	O=c1c(-c2ccc(O)cc2)coc2cc(O)cc(O)c12 [GEN, genistein]	14.41	26.17	113.8	199.8	35.15	83.38	68%	–	–	16.6%	–	34.0%	38%	reduction of TNF-α compared to LPS ([3]; 20 μM): 29.1%; reduction of IL-6 production compared to LPS ([4]; 20 μM): 80.4%
variable permeability with pH change	–	–	CC(C(=O)O)c1cccc(C(=O)c2ccccc2)c1 (stereo not drawn) [Ketoprofen, ketoprofen, reference compound]	–	–	–	–	–	–	–	–	–	–	–	–	–	–
low	–	–	CNC(=C[N+](=O)[O-])NCCSCc1ccc(CN(C)C)o1 [Ranitidine, ranitidine, reference compound]	–	–	–	–	–	–	–	–	–	–	–	–	–	–
moderate permeability	low permeability	–	COc1cc(C[C@@H](CO)[C@H](CO)Cc2ccc(O)c(OC)c2)ccc1O [SECO, secoisolariciresinol]	4.653	–	20.62	–	-7.108	–	–	46.35 µM	497.8 pg/mL	3.97%	672.8 pg/mL	1.05%	approximately 9.13%	–

Source: publication PMC6523162 (Metabolites, 2019)
